Measured values taken from paper PMC2062997, “Effects of impaired renal function on the pharmacokinetics of raltitrexed (Tomudex ZD1694)” (British Journal of Cancer, 1998).

Columns and labels:
[1] = Safety: adverse events and WHO-graded toxicity in cancer patients; type: in vivo
Method: British Journal of Cancer (1 998) 78(9). 1188-1193 C 1998 Cancer Research Campaign Effects of impaired renal function on the pharmacokinetics of raltitrexed (Tomudex ZDI 694) I Judson', T Maughan2, P Beale', J Primrose3, P Hoskin4, J HanweIll, C Berry1, M Walker5 and F Sutcliffe5 lInstitute of Cancer Research. Sutton, Surrey SM2 5NG, UK; Welindre Hospital, Whitchurch. Cardiff CF4, UK; 3Souftampton General Hospital, Southampton S09 4XY. UK: 'Mount Vernon Hospital, Middlesex HA6 2RN. UK; 5Zeneca Pharmaceutcals Macclesfield. Cheshire SK10 4TG. UK Summary This open-label, non-randomized, parallel-group trial investigated the pharmacokinetics of raltitrexed (Tomudex, formerly ZD1 694) after a single intravenous dose of 3.0 mg m-2, comparing eight cancer patients with mild to moderate renal impairment (creatinine clearance 25-65 ml min-') with eight cancer patients with normal renal function (creatinine clearance >65 ml min-'). The primary end points were area under the plasma raltitrexed concentration-vime curve from the start of the infusion to the last determined concentration (AUCo_) and AUC to infinity (AUCo); secondary end points were peak corncentrations of ralftitrexed (C,n,) and elimination half-life (t,>). The groups were compared statistically using analysis of covariance. The AUCs were greater for patients with renal impairment than for patients with normal renal function (2452.2 compared with 1247.3 ng h ml-' for AUCo._. (ratio 1.97; 95% Cl 1.36-2.84); 2961.5 compared with 1457.0 ng h ml-' for AUCo_ (ratio 2.03; 1.25-3.29). These differences were statistically significant (P = 0.002 and P = 0.008 for AUC, and AUCo_ respectively. Terminal half-life was longer for the renally impaired patients (271.2 compared with 143.3; P = 0.030). There was no significant statistical difference between the groups for C, (652.9 compared with 564.7 ng ml-' for patients with impaired and normal renal function respectively: ratio 1.16; 0.91-1.46; P=0.204). There was a clear relationship between raltfitrexed clearance and creatinine clearance. Adverse events, severe (WHO grade 3 or 4) toxicity and hospitalization due to adverse events were more frequent in the group with renal impairment. Therefore, a reduction in ralftitrexed dose and increased interval between doses is recommended for patients with mild to moderate renal impairment. Keywords: pharmacokinetics; thymidylate synthase; phase I trial; raltitrexed; renal impairment Raltitrexed (Tomudex. ZD1694: Zeneca Limited) is a cytotoxic agent w-hich acts by direct and specific inhibition of thymidydlate synthase. the enzyme catalysing a critical step in de novo DNA synthesis. i.e. the production of thymidine monophosphate from deoxvuridine monophosphate. […]

[2] = Single-dose plasma pharmacokinetics of raltitrexed in cancer patients (radioimmunoassay, three-compartment model); type: in vivo, human
Method: British Journal of Cancer (1 998) 78(9). 1188-1193 C 1998 Cancer Research Campaign Effects of impaired renal function on the pharmacokinetics of raltitrexed (Tomudex ZDI 694) I Judson', T Maughan2, P Beale', J Primrose3, P Hoskin4, J HanweIll, C Berry1, M Walker5 and F Sutcliffe5 lInstitute of Cancer Research. Sutton, Surrey SM2 5NG, UK; Welindre Hospital, Whitchurch. Cardiff CF4, UK; 3Souftampton General Hospital, Southampton S09 4XY. UK: 'Mount Vernon Hospital, Middlesex HA6 2RN. UK; 5Zeneca Pharmaceutcals Macclesfield. Cheshire SK10 4TG. UK Summary This open-label, non-randomized, parallel-group trial investigated the pharmacokinetics of raltitrexed (Tomudex, formerly ZD1 694) after a single intravenous dose of 3.0 mg m-2, comparing eight cancer patients with mild to moderate renal impairment (creatinine clearance 25-65 ml min-') with eight cancer patients with normal renal function (creatinine clearance >65 ml min-'). The primary end points were area under the plasma raltitrexed concentration-vime curve from the start of the infusion to the last determined concentration (AUCo_) and AUC to infinity (AUCo); secondary end points were peak corncentrations of ralftitrexed (C,n,) and elimination half-life (t,>). The groups were compared statistically using analysis of covariance. The AUCs were greater for patients with renal impairment than for patients with normal renal function (2452.2 compared with 1247.3 ng h ml-' for AUCo._. (ratio 1.97; 95% Cl 1.36-2.84); 2961.5 compared with 1457.0 ng h ml-' for AUCo_ (ratio 2.03; 1.25-3.29). These differences were statistically significant (P = 0.002 and P = 0.008 for AUC, and AUCo_ respectively. Terminal half-life was longer for the renally impaired patients (271.2 compared with 143.3; P = 0.030). There was no significant statistical difference between the groups for C, (652.9 compared with 564.7 ng ml-' for patients with impaired and normal renal function respectively: ratio 1.16; 0.91-1.46; P=0.204). There was a clear relationship between raltfitrexed clearance and creatinine clearance. Adverse events, severe (WHO grade 3 or 4) toxicity and hospitalization due to adverse events were more frequent in the group with renal impairment. Therefore, a reduction in ralftitrexed dose and increased interval between doses is recommended for patients with mild to moderate renal impairment. Keywords: pharmacokinetics; thymidylate synthase; phase I trial; raltitrexed; renal impairment Raltitrexed (Tomudex. ZD1694: Zeneca Limited) is a cytotoxic agent w-hich acts by direct and specific inhibition of thymidydlate synthase. the enzyme catalysing a critical step in de novo DNA synthesis. i.e. the production of thymidine monophosphate from deoxvuridine monophosphate. Some clinically effective anti- cancer agents. such as 5-fluorouracil and methotrexate. act in part by inhibiting thymidylate synthase but also have effects on other enzyme pathways. xvhich may contribute to their anti-tumour activity and obserned toxicity profiles. Raltitrexed inhibits thymidylate synthase selectively in vitro (Jackman et al. 1991). […] The poly- glutamates are retained in cells and cause prolonged inhibition of th midv late synthase. which leads to DNA fragmentation and cell death. […] The mean apparent half-life of the terminal (gamma) phase (tl, ,) was 50-lOO h (Clarke et al. 1996). This prolonged t1, may represent hydrolysis of the polvalutamated Received 17 November 1997 Revised 4 Apnl 1998 Accepted 14 Apnl 1998 Correspondence to: IR Judson, CRC Centre for Cancer Therapeutics. The Institute of Cancer Research. Block E. 15 Cotswold Road. Belmont. Sutton. Surrey SM2 5NG. UK forms and release of raltitrexed from tissues into the circulation. and allow s the druc to be administered as a single dose once ev er 3 weeks. In the phase I trial. a dose and schedule of 3.0mg m-' every 3 weeks was identified as suitable for phase H inxvestigation. […]

Cc1nc2ccc(CN(C)c3ccc(C(=O)N[C@@H](CCC(=O)O)C(=O)O)s3)cc2c(=O)[nH]1 [raltitrexed]
Pain, number of patients ([1]; both, human, in vivo): 3 patients | WHO grade 3 or 4 drug-related toxicity ([1]; both, human, in vivo): No WHO grade 3 or 4 drug-related toxicity was reported | WHO grade 3 or 4 toxicity ([1]; both, human, in vivo): grade 3 or 4 toxicity was observed | Serious adverse events ([1]; renally impaired patient: Cr-EDTA clearance 28, calculated creatinine clearance 23.2 ml min-1): Death | Cmax estimated ratio (impaired:normal renal function) ([2]; 95% CI 0.91-1.46, P = 0.204): 1.16 | AUC0-infinity estimated ratio (impaired:normal renal function) ([2]; 95% CI 1.25-3.29, P = 0.008): 2.03 | AUC0-tldc estimated ratio (impaired:normal renal function) ([2]; 95% CI 1.36-2.84, P = 0.002): 1.97 | AUC ([2]; both sexes, human, in vivo, AUC0-tldc, adjusted geometric least squares mean): 2450 ng·h/mL | Cmax ([2]; both sexes, human, in vivo, Cmax, adjusted geometric least squares mean): 565 ng/mL | Cmax ([2]; both sexes, human, in vivo, iv, 3 mg, Cmax (mean; SD)): 676 ng/mL | Tmax ([2]; both sexes, human, in vivo, iv, tmax (median and range)): 16 min | half-life ([2]; both sexes, human, in vivo, t1/2 gamma (terminal half-life), adjusted least squares mean): 11.3 days | Cmax, adjusted geometric least squares mean ([2]; both, human, in vivo): 652.9 ng/mL | t1/2 gamma (terminal half-life), adjusted least squares mean ([2]; both, human, in vivo): 143.3 h | tmax (median and range) ([2]; both, human, in vivo, iv): 20 (10-30) min | Cmax (mean; SD) ([2]; human, in vivo, iv, 3 mg): 567.1 ? 62.7 ng ml-1
